The text below walks through data of ChEMBL document CHEMBL3507680, “University of Dundee, Gates Library screen for HepG2 cell viability”.

Each structure is given as a SMILES string.

The nature of the data set: Human HepG2 cell viability assay in 384 well format. Conditions: HepG2 cells, read-out: Inhibition. The class given is toxicity, cell-based. On the set-up: dose 125 nL, time 70.5 hour; cytotoxicity at 70.5 h: concentration not given beside the values.
For the compound `CN(Cc1ccco1)C1CCC12CCN(C(=O)c1ccnnc1)CC2` (centres undefined), the cytotoxicity at 70.5 h is 5.1%.

Turning to `COc1ccc(OC)c(Sc2ncccc2C(=O)NCCSC)c1`, the cytotoxicity at 70.5 h is -8.11%.

Consider `Cc1cc(CS(=O)(=O)CC(=O)N2c3ccccc3CC2C)no1` (centres undefined), for which the cytotoxicity at 70.5 h was -0.335%.

As for `O=C(CC1CC1)N1CC[C@H]2[C@@H]1CCC(=O)N2Cc1ccncc1`, the cytotoxicity at 70.5 h is -9.8%.

Consider `CCn1ncc2c1NC(=O)C(C#N)C21CCCC1` (centres undefined), for which the cytotoxicity at 70.5 h was -11.6%.

With `CCS(=O)(=O)N1CC[C@H]2C(=O)N(Cc3cccnc3)CCO[C@H]2C1`, the cytotoxicity at 70.5 h is -13.9%.

With `O=C([C@H]1CCCO1)N1CCC2(CCCN(CCOc3ccccc3)C2)C1` (some centres undefined), the cytotoxicity at 70.5 h is 20.8%.

As for `CCn1ncc2c1CCCC2NCc1ccc(C)s1` (centres undefined), the cytotoxicity at 70.5 h was -4.74%.

`COC(=O)N1CCC(Nc2cccc(F)c2C(C)=O)CC1`: the cytotoxicity at 70.5 h is -10.1%.

`Cc1cc(C)c(CNc2ncnc3c2cnn3C)c(=O)[nH]1`: the cytotoxicity at 70.5 h is -11.1%.

In the case of `Cc1ccc(CN(CCCn2ccnc2)Cc2c[nH]cn2)s1`, the cytotoxicity at 70.5 h was -0.992%.

Take `CCN1CCN(C(C)CNC(=O)Nc2cnn(CC)c2)CC1` (centres undefined): the cytotoxicity at 70.5 h was -7.65%.

For the compound `OCCOCCN1CCCC1c1cccc(Cl)c1` (centres undefined), the cytotoxicity at 70.5 h is -3.17%.

`CCC(NC1CCN(S(C)(=O)=O)CC1)c1cccs1` (centres undefined): the cytotoxicity at 70.5 h is -15.6%.

For the compound `O=C(N[C@@H]1CCN(C(=O)C2CCOCC2)C[C@H]1O)c1ccccn1`, the cytotoxicity at 70.5 h is -4.74%.

Consider `CCC(=O)N1CCC2(CC1)C(=O)N(Cc1cccnc1)CCN2C`, for which the cytotoxicity at 70.5 h was -3.61%.

On to `Cc1nc(N2C[C@@H](CN3CCCN(C)CC3)[C@@H](CO)C2)c2sccc2n1`, for which the cytotoxicity at 70.5 h is 27.9%.

`O=C(NCc1ccco1)[C@H]1CC[C@@H]2[C@@H](CCN2Cc2cccnc2)O1`: the cytotoxicity at 70.5 h is -5.95%.

Take `Cc1ccc(S(=O)(=O)NC[C@H]2OC[C@@H](NCc3cccnc3)[C@@H]2O)cc1`: the cytotoxicity at 70.5 h was -7.82%.

With `Cn1cccc1C(CNC(=O)c1ccc(F)cc1F)N1CCCCCC1` (centres undefined), the cytotoxicity at 70.5 h came out at 34.1%.

`CN(C)C(=O)CO[C@H]1CN(Cc2ccoc2)[C@@H]2COC[C@H]12`: the cytotoxicity at 70.5 h is -5.51%.

In the case of `Cn1cccc1C(=O)N1CCn2cc(CN3CCCC3)nc2C1`, the cytotoxicity at 70.5 h is -1.14%.

`COCc1cncc2c1CCN(Cc1ccccn1)C2`: the cytotoxicity at 70.5 h was -0.455%.

For `CN1C(=O)CCC12CCN(S(=O)(=O)c1ccccc1)CC2`, the cytotoxicity at 70.5 h was -13.4%.

`O=C(NC1CCCN(c2ccccc2Cl)C1)c1ccc(=O)[nH]n1` (centres undefined): the cytotoxicity at 70.5 h was -12.6%.

On to `Cc1cccnc1CN1CCCCC1c1ccn2ccnc2n1` (centres undefined), for which the cytotoxicity at 70.5 h is -4.81%.

With `Cc1nc([C@@H]2C[C@@H]3CCN(C(=O)c4ccsc4)C[C@H]3O2)no1`, the cytotoxicity at 70.5 h was -4.84%.

As for `O=C(N1CCOCC1)[C@@]12CCO[C@@H]1CCN(C1CCCC1)C2`, the cytotoxicity at 70.5 h is -15.6%.

For `CS(=O)(=O)NC1CC(=O)N(c2ccccc2Cl)C1` (centres undefined), the cytotoxicity at 70.5 h was -27%.

Regarding `COc1ccc(C(=O)NCCC(N)=O)c(I)c1`, the cytotoxicity at 70.5 h is 24.4%.

For the compound `CC1(c2ccc(Br)cc2)CC(=O)N(CCC#N)C1=O` (centres undefined), the cytotoxicity at 70.5 h came to 32.5%.

Regarding `Cc1nc(NC(=O)C(C)S(C)(=O)=O)sc1Cc1ccc(F)cc1` (centres undefined), the cytotoxicity at 70.5 h came out at 7.99%.

Turning to `O=C(NN1CCCc2ccccc21)c1c[nH]c(=O)[nH]1`, the cytotoxicity at 70.5 h is -7.94%.

`CN(C)Cc1nn(C)c2c1CCN(S(=O)(=O)c1cccs1)C2`: the cytotoxicity at 70.5 h stood at 1.38%.

With `CC(C)NC(=O)C1CN(C(=O)Nc2ccc(F)cc2)CC12CCOCC2` (centres undefined), the cytotoxicity at 70.5 h was -6.35%.

In the case of `c1cncc(CN2CCO[C@H]3[C@H](OCCN4CCCC4)CC[C@@H]32)c1`, the cytotoxicity at 70.5 h was -8.38%.

Turning to `COc1ccc(CN(Cc2ccco2)Cc2[nH]cnc2C)c(OC)c1`, the cytotoxicity at 70.5 h is -8.31%.

Consider `CC(CNC(=O)NCc1ccc2c(c1)OCO2)CC1(C)OCCO1` (centres undefined), for which the cytotoxicity at 70.5 h is -5.24%.

For `CCCN1CCC(Nc2nc(C)ns2)CC1`, the cytotoxicity at 70.5 h was -8.37%.

Take `Cc1cc(S(=O)(=O)N2C[C@H](C3CC3)[C@@H](N)C2)c(C)s1`: the cytotoxicity at 70.5 h was -6.03%.

`Cc1csc(C2CCCCN2C(=O)COCc2nc(C)no2)n1` (centres undefined): the cytotoxicity at 70.5 h is -4.26%.

In the case of `Cn1cc(C(=O)N2CC[C@@]3(O)CCN(C4CCCCC4)C[C@H]3C2)cn1`, the cytotoxicity at 70.5 h is -2.94%.

With `CCCc1nc(C)c(C(=O)NCCN2CCN(CC)CC2)s1`, the cytotoxicity at 70.5 h is -5.5%.

`Cn1cccc1C(=O)NCc1cnc2n1CCN(c1ccccn1)C2`: the cytotoxicity at 70.5 h is -3.68%.

Consider `O=C(c1ccccn1)N1C[C@@H]2CC[C@H](C1)N(C(=O)Cc1cccs1)C2`, for which the cytotoxicity at 70.5 h is -10%.

For the compound `CCc1nnsc1C(=O)NC1CCN(c2ccccn2)CC1`, the cytotoxicity at 70.5 h is 11.2%.

For the compound `CC(C)c1nnc2n1CCN(C(=O)c1ccc3c(c1)COC3)C2`, the cytotoxicity at 70.5 h is -0.783%.

Consider `CN1C[C@H](O)[C@]2(CCN(Cc3ccc(OC(F)(F)F)cc3)C2)S1(=O)=O`, for which the cytotoxicity at 70.5 h was -1.23%.

Consider `COCCN1C(=O)CC[C@]12CC[C@@H](NCc1cccc(C)n1)CC2`, for which the cytotoxicity at 70.5 h turned out to be 0.785%.

For the compound `O=C(NCC(O)c1ccccc1Cl)c1cccc(-n2cnnn2)c1` (centres undefined), the cytotoxicity at 70.5 h is -0.179%.

Consider `O=C(CN1CCC[C@H]1C(=O)O)NCCOc1cccc(Cl)c1`, for which the cytotoxicity at 70.5 h is -1.34%.

On to `O=C(NCCc1nccs1)C1CCCN(Cc2ccco2)C1` (centres undefined), for which the cytotoxicity at 70.5 h is -2.53%.

`CN(C)S(=O)(=O)N1C[C@H]2CCC[C@@]2(COCC2CC2)C1`: the cytotoxicity at 70.5 h is 16.4%.

Take `c1ccc2c(NCC3(N4CCOCC4)CCSC3)ncnc2c1` (centres undefined): the cytotoxicity at 70.5 h came out at 2.49%.

Turning to `CC(C)c1noc(CCCC(=O)N2CCN(Cc3ccncc3)CC2)n1`, the cytotoxicity at 70.5 h was -17.6%.

Regarding `CCN(CC)Cc1ccc(C(=O)N2CCCC2Cn2cccn2)cc1` (centres undefined), the cytotoxicity at 70.5 h was -7.71%.

For `COCC1CN(C(=O)c2ccco2)Cc2cn(C)nc21` (centres undefined), the cytotoxicity at 70.5 h was 3.61%.

As for `O=C(NC1CCCC1)c1cc2c(s1)CCN2C(=O)c1ccccc1`, the cytotoxicity at 70.5 h is 0.186%.

Regarding `CC(NC(=O)Cn1cccn1)c1ccc2c(c1)OCCO2` (centres undefined), the cytotoxicity at 70.5 h was -11.1%.

In the case of `CC(NC(=O)c1cc(=O)n(C)c(=O)n1C)c1ccccc1-n1cccn1` (centres undefined), the cytotoxicity at 70.5 h turned out to be 4.9%.

Take `COCC1CC2(CCN(Cc3ccc(C)o3)CC2)CN1C(C)C` (centres undefined): the cytotoxicity at 70.5 h is -3.1%.

`Cc1nc(NC(=O)N(C)Cc2ccsc2)nn1C`: the cytotoxicity at 70.5 h is -7.49%.

Take `O=C(Cn1nc(Br)nc1Br)N1CCCC1`: the cytotoxicity at 70.5 h is -0.289%.

As for `CN(Cc1ccccc1)c1ccc(C(F)(F)F)cn1`, the cytotoxicity at 70.5 h is -3.92%.

In the case of `O=C(NCC(Cc1cccc(F)c1)N1CCCC1=O)c1ccccc1` (centres undefined), the cytotoxicity at 70.5 h came out at 4.11%.

Regarding `c1cc(C2CCN(c3cnccn3)CC2)ncn1`, the cytotoxicity at 70.5 h stood at 1.96%.

For the compound `CCc1cnc(CCNC(C)CC(=O)Nc2cccc(C)c2C)s1` (centres undefined), the cytotoxicity at 70.5 h is -5.98%.

On to `CCN1CCN(C(=O)NCCOc2ccc3c(c2)OCO3)CC1`, for which the cytotoxicity at 70.5 h was -11.4%.

Take `CCc1nc(CN(C)CC(c2cccs2)N2CCOCC2)no1` (centres undefined): the cytotoxicity at 70.5 h stood at 18.8%.

As to `COCC(Nc1ncnc2sc(C(=O)O)c(C)c12)c1ccnn1C` (centres undefined), the cytotoxicity at 70.5 h stood at 0.588%.

Take `Cc1ccc(C)c(CC(=O)Nc2cccc(C(=O)N(C)C)n2)c1`: the cytotoxicity at 70.5 h turned out to be 5.58%.

Consider `COc1cc(CNC2CCCN(c3ncccn3)C2)cc2c1OCO2` (centres undefined), for which the cytotoxicity at 70.5 h was -5.86%.

In the case of `CNS(=O)(=O)Cc1cccc(CNc2ccc(Cl)cn2)c1`, the cytotoxicity at 70.5 h was determined as 4.33%.

As to `CN(Cc1cccnc1N)Cc1cccc2ncccc12`, the cytotoxicity at 70.5 h was -15.9%.

Regarding `COc1ccccc1-c1cc(C(=O)N(C)C)nc2c1cnn2C`, the cytotoxicity at 70.5 h is -11.4%.

Turning to `CCOc1ncccc1CNC(=O)NC(C)Cn1cccn1` (centres undefined), the cytotoxicity at 70.5 h came to 25.9%.

As for `Cc1ccc2nc(C3CCCN3Cc3scnc3C)[nH]c2c1` (centres undefined), the cytotoxicity at 70.5 h was -6.86%.

For `Cc1cccc(OCCC(=O)N2CCN(S(=O)(=O)N(C)C)CC2)c1C`, the cytotoxicity at 70.5 h was 20.1%.

With `O=C(c1cnc(C2CC2)nc1)N1CCCC(c2nccs2)C1` (centres undefined), the cytotoxicity at 70.5 h turned out to be 27.6%.

As to `OC1(Cn2ccc3ncccc32)CCN(Cc2cccnc2)CC1`, the cytotoxicity at 70.5 h is -2.24%.

`Cc1nc(N(C)C)nc(-c2cccc(-c3ccn(CCCF)n3)c2)c1C`: the cytotoxicity at 70.5 h was -10.9%.

For `COCc1ncc(CN2CC(Oc3c(C)cccc3C)C2)cn1`, the cytotoxicity at 70.5 h was -0.994%.

With `CNC(=O)COC(=O)c1ccn(-c2ccc(Cl)c(Cl)c2)n1`, the cytotoxicity at 70.5 h stood at 24.2%.

For the compound `Cn1cc(CN2CCCC3(CCN(C(=O)c4ccccn4)C3)C2)cn1` (centres undefined), the cytotoxicity at 70.5 h was -12%.

For the compound `COc1cc2cc3c(nc2cc1OC)OCCN(CC1CC1)C3`, the cytotoxicity at 70.5 h was -2.88%.

Turning to `Cc1csc(C(C#N)C(=O)Nc2ccccc2)n1` (centres undefined), the cytotoxicity at 70.5 h was -0.341%.

On to `CCc1nc(CN2CCOC(CN(C)c3cccnn3)C2)cs1` (centres undefined), for which the cytotoxicity at 70.5 h is -7.04%.

Regarding `CCC(C)C(=O)NCc1cccc(OCCN(C)C2CCOCC2)c1` (centres undefined), the cytotoxicity at 70.5 h was 16.4%.

As to `Cc1ccc(-n2ccnc2)c(C(=O)NCCOCC2CCCO2)c1` (centres undefined), the cytotoxicity at 70.5 h was -1.48%.

`CCN(C)c1ncnc2c1CCN(Cc1ccncc1)CC2`: the cytotoxicity at 70.5 h is -0.527%.

Take `CCOC(=O)c1c(NC(=O)CN2CCN(C(C)=O)CC2)sc(C)c1C`: the cytotoxicity at 70.5 h was -13.3%.

Consider `Cc1cc(C)c(S(N)(=O)=O)cc1C(=O)NCCN1CCC(C)CC1`, for which the cytotoxicity at 70.5 h was -12.9%.

With `O=S(=O)(C1CC1)N1CCCn2nnc(Cn3cccc3)c2C1`, the cytotoxicity at 70.5 h was -8.69%.

Turning to `CCCc1noc(CCC(=O)Nc2cc(C(F)(F)F)c[nH]c2=O)n1`, the cytotoxicity at 70.5 h is -6.41%.

`Cc1nn(C)c(N(C)C)c1CNCc1cccnc1OC(C)C`: the cytotoxicity at 70.5 h is 21.9%.

For `N#Cc1ccc(CNC(=O)NC2CCN(CC(F)(F)F)C2)cc1` (centres undefined), the cytotoxicity at 70.5 h was -5.15%.

In the case of `Cc1cc(C)cc(NC(=O)Cc2c(C)nc3c(c2C)c(=O)[nH]n3C)c1`, the cytotoxicity at 70.5 h was -0.0448%.

For `CNc1[nH]nc(N)c1C(=O)Nc1ccccc1`, the cytotoxicity at 70.5 h was 2.68%.

For `Cn1nc(CNc2ncccn2)c2c1CN(c1cnccn1)CC2`, the cytotoxicity at 70.5 h is -8.13%.
